Read-outs that look alike come from different tables or passages of the source.
Key:
A2B Receptor [1] = target: T1, A2B Receptor (Homo sapiens, UniProt P29275); conditions: background statement; cited from earlier work
T1 sequence (P29275 1-332): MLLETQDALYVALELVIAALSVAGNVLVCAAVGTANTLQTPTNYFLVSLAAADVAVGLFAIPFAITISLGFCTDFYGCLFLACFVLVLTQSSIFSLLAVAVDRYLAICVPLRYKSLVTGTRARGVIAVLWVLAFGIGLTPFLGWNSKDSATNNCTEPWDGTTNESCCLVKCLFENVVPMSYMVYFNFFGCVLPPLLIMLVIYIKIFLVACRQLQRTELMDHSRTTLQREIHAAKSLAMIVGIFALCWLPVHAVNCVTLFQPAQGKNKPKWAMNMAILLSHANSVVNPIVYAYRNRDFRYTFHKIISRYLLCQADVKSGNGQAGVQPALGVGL

human A1 [2] = target: T2, human A1 (Homo sapiens, UniProt P30542); assay: Displacement of [3H]DPCPX from membranes of CHO cells transfected with human A1; type: binding; conditions: read-out: Antagonist potency (K1 or KB) A1 Receptor
T2 construct: expressed in transfected cells
T2 sequence (P30542 1-326): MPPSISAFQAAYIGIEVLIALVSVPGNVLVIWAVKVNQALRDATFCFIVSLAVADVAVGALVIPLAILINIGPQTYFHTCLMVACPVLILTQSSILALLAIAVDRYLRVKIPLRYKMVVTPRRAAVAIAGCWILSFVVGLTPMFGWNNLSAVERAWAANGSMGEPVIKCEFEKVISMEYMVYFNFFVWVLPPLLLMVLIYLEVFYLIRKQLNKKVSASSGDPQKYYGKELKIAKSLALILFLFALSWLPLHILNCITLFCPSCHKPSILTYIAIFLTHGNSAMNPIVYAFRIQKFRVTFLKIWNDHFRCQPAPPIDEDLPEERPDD

A2A Receptor [3] = target: T3, A2A Receptor (Homo sapiens, UniProt P29274); assay: Inhibition of CGS 21680-stimulated cAMP in HMC-1 cells; type: cell-based; conditions: human (h), read-out: Antagonist potency (K1 or KB) A2A Receptor
T3 construct: endogenous in cells; host or cells: HMC-1 cells
T3 sequence (P29274 whole entry): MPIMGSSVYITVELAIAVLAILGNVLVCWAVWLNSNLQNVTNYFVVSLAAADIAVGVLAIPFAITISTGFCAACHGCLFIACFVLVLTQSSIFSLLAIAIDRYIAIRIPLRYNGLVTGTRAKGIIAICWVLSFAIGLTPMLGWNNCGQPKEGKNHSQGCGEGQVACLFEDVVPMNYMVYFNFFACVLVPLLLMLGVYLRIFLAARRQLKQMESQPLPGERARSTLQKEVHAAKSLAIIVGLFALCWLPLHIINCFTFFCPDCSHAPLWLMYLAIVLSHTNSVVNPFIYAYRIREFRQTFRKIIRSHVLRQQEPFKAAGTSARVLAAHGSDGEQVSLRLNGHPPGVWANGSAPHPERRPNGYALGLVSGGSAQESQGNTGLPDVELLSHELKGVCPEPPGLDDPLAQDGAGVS

human A3 = target: T4, human A3 (Homo sapiens, UniProt P0DMS8); assay: Displacement of [3H]NECA from CHO cells transfected with human A3; type: binding; conditions: read-out: Antagonist potency (K1 or KB) A3 Receptor
T4 construct: expressed in transfected cells
T4 sequence (P0DMS8 1-318): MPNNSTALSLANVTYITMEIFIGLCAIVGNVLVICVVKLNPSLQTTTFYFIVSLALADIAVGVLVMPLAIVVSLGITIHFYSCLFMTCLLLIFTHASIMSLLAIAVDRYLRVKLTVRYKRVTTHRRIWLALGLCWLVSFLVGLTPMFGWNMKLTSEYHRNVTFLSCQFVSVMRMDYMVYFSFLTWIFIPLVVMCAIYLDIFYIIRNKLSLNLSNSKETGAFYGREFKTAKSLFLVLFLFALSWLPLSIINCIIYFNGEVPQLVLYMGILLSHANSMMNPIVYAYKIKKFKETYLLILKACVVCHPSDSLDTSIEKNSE

A2B Receptor [4] = target: T1, A2B Receptor; assay: Inhibition of NECA-stimulated cAMP in HEL (human erythroleukemia) cells, Schild analysis; type: cell-based; set-up: endogenous in cells; host or cells: human erythroleukemia (HEL) cells; conditions: for Schild analysis, type of antagonism at A2B receptors: NECA cAMP dose-response curves in human erythroleukemia cells with increasing antagonist concentrations, FIG. 1; for Kb: human (h), NECA-stimulated cAMP in HEL cells, read-out: Antagonist potency (K1 or KB) A2B Receptor
Excerpt: A Schild analysis derived from dose-response curves for accumulation of cAMP produced by NECA in human erythroleukemia cells in the absence and in the presence of increasing concentrations of the antagonists. […] The intercept at the x-axis is an estimate of the Ki of the antagonists.

human A1 [5] = target: T2, human A1; conditions: human (h); [3H]DPCPX, HEK-293 cells transfected with human A1; read-out: Antagonist potency (K1 or KB) A1 Receptor; cited from earlier work
rat A3 = target: T5, rat A3 (Rattus norvegicus, UniProt P28647); conditions: rat (r); [125I]APNEA, CHO cells transfected with rat A3; read-out: Antagonist potency (K1 or KB) A3 Receptor; cited from earlier work
T5 construct: expressed in transfected cells
T5 sequence (P28647 1-320): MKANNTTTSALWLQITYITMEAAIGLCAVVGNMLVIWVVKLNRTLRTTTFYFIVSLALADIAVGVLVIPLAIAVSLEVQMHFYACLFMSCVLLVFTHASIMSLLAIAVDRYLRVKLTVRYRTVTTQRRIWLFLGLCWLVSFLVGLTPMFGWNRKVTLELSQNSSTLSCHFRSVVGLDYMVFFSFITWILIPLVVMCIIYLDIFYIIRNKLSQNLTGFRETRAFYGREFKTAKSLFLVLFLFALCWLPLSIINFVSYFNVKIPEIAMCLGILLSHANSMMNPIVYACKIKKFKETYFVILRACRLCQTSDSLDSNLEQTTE

A1 Receptor = target: T6, A1 Receptor (Rattus norvegicus, UniProt P25099); conditions: read-out: Antagonist potency (K1 or KB) A1 Receptor; rat (r); [3H]PIA, rat brain membranes; cited from earlier work
T6 sequence (P25099 1-326): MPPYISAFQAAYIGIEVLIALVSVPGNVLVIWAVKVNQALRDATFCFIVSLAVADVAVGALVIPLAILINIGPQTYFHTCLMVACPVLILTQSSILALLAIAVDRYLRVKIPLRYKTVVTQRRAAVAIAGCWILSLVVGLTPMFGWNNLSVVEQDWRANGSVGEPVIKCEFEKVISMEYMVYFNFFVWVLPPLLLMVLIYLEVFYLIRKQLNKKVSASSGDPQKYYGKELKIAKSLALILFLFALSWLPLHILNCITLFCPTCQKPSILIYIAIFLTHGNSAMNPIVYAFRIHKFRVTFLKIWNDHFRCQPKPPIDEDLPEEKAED

A2A Receptor [6] = target: A2A Receptor (Rattus norvegicus, UniProt P30543); conditions: read-out: Antagonist potency (K1 or KB) A2A Receptor; rat (r); CGS 21680 radioligand, rat striatal membranes; cited from earlier work
Sequence of A2A Receptor (Rattus norvegicus, UniProt P30543) (P30543 whole entry): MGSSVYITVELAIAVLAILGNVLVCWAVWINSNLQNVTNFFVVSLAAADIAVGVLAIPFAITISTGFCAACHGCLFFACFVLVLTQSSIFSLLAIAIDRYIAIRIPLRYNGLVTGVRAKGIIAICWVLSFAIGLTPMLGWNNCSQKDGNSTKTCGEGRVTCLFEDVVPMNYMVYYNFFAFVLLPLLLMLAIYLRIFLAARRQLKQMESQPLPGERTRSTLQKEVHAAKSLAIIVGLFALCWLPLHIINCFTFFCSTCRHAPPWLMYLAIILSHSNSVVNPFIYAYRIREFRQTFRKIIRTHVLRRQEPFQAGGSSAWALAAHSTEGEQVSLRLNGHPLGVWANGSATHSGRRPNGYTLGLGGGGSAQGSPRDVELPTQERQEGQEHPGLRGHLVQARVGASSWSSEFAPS

In the case of CCNC(=O)[C@H]1O[C@@H](n2cnc3c(NCc4ccccc4)ncnc32)[C@@H](O)C1O (stereo partly shown) [N^6-benzyl NECA], the “Agonist activity or affinity at A2B receptors” value (A2B Receptor [1]) is given as “very low affinity”.

In the case of CC(C)Cn1c(=O)[nH]c(=O)c2[nH]c(N3CCCC3)nc21 [Formula (I)], the Kb (human A1 [2]) is reported as 31 µM, the Kb (A2A Receptor [3]) is reported as 20 µM and the Kb (human A3) is reported as 53 µM. For the same compound, the “Schild analysis, type of antagonism at A2B receptors” value (from here on “Schild analysis, type of antagonism”) (A2B Receptor [4]) was “competitive antagonism”, the “Potency compared with enprofylline” value (A2B Receptor [4]; comparison from the potency table) was “much higher than that of enprofylline” and the Kb (A2B Receptor [4]) was 0.525 µM.

For CCCn1c(=O)[nH]c(=O)c2nc[nH]c21 [Enprofylline], the Kb (human A1 [5]) is given as 156 µM and the “Schild analysis, type of antagonism” value (A2B Receptor [4]) is given as “competitive antagonism”.

For Cn1c(=O)c2[nH]cnc2n(C)c1=O [Theophylline], the Kb (rat A3) is given as greater than 100 µM.

In the case of CCCn1c(=O)c2[nH]c(-c3ccc(S(=O)(=O)O)cc3)nc2n(CCC)c1=O [DPSPX, 1,3-dipropyl-8-p-sulfophenylxanthine], the Kb (rat A3) is given as greater than 100 µM, the “Affinity of xanthine antagonists at A2B receptors” value (A2B Receptor [1]) is given as “mid to high nM range” and the Kb (A1 Receptor) is given as 0.14 µM. For the same compound, the Kb (A2A Receptor [6]) was 0.79 µM, the “Schild analysis, type of antagonism” value (A2B Receptor [4]) was “competitive antagonism” and the Kb (A2B Receptor [4]) was 0.14 µM.
